Patent US20250228835A1, “PYRIDINYLOXYPYRIDINES AND RELATED COMPOUNDS AND THEIR USE IN TREATING MEDICAL CONDITIONS” (Rectify Pharmaceuticals, Inc., priority 2024, published 2025)

Assays:
Assay type in all cases: cell-based
[1] = target: T1, ABCA4 P1380L (Homo sapiens, UniProt P78363, P1380L); experiment: A4 correction dose-response assay: ABCA4 P1380L HiBit protein expression; settings: HEK-293 cells stably expressing HiBit-tagged ABCA4 P1380L; 24 h treatment; top concentration 30 μM; read-out: ABCA4 P1380L EC50, Emax
T1 construct: expressed in transfected cells
T1 sequence (P78363 whole entry P1380L): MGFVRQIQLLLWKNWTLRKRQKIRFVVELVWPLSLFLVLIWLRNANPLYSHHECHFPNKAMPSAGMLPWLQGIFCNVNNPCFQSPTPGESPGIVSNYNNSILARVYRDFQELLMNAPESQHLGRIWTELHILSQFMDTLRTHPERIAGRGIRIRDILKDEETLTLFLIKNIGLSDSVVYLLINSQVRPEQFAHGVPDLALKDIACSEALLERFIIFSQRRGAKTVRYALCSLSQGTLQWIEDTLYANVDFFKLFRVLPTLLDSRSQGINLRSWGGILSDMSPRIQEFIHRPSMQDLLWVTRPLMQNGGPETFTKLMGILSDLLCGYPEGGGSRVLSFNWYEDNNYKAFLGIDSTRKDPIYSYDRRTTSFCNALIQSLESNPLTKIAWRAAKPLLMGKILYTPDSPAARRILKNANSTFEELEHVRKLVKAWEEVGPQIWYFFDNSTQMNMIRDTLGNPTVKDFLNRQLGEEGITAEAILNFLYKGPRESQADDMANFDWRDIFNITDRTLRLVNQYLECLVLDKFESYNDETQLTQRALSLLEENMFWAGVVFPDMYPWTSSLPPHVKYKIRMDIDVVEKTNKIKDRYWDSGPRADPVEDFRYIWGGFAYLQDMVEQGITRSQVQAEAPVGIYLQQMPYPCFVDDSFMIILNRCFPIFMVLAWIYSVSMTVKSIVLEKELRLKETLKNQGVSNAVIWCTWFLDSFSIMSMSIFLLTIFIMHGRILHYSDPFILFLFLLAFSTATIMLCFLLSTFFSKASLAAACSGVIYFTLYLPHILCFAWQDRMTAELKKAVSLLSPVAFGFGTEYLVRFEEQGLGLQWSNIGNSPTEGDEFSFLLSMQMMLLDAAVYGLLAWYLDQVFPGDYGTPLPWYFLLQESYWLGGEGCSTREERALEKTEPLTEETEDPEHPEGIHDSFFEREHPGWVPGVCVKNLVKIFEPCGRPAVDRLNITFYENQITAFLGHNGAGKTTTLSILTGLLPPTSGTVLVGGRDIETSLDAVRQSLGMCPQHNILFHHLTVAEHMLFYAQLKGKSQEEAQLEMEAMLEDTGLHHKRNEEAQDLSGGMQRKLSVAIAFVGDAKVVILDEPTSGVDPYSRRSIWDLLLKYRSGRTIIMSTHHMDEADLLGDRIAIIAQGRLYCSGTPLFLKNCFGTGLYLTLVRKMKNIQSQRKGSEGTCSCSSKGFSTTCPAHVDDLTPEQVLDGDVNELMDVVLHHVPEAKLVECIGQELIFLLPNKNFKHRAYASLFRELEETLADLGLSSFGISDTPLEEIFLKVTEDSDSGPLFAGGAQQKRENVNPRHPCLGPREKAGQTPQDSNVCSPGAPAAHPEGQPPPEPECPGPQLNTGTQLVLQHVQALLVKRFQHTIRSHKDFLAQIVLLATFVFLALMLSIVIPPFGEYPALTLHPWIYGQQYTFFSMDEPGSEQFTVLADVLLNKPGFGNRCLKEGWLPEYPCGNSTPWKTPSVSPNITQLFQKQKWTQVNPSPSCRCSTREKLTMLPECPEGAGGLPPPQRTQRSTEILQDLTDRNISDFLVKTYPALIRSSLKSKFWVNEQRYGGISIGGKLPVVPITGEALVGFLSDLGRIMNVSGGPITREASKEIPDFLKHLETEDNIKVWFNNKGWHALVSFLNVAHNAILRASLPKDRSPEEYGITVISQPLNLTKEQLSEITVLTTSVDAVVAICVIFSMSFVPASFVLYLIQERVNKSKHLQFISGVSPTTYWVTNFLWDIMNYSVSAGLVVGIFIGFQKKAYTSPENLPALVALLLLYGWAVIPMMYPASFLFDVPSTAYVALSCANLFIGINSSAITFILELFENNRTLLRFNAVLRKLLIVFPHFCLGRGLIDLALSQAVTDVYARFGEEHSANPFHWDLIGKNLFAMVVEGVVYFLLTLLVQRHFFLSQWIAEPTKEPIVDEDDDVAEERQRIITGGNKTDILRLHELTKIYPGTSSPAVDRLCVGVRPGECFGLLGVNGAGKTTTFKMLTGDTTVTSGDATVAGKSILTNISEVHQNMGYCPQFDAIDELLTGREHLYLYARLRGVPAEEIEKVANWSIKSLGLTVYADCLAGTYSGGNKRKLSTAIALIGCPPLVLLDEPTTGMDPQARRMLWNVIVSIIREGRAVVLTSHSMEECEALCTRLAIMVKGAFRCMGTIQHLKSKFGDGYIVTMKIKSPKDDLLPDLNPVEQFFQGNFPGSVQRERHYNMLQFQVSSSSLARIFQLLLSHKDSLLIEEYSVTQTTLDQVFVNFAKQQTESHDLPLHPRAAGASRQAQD
Protocol: Exemplary compounds were evaluated in an A4 correction dose-response assay.
To assess activity against ABCA4 P1380L, the compounds were screened in an assay measuring protein expression, using cells transfected with cDNA encoding HiBit-tagged ABCA4 P1380L. Here we describe an assay for measuring the expression of the P1380L variant of human ABCA4 (henceforth referred to as ABCA4 P1380L) and the use of this assay to measure the efficacy of compounds to increase the expression of ABCA4 P1380L. The assay was designed to characterize the efficacy and potency of compounds to increase the expression of ABCA4 P1380L by calculating an Emax and EC50 value. […] (5% CO2, humidified). […] After the four-hour incubation period, 60 nL of DMSO solutions are transferred to the assay plate.
(§1) Dose response curves include eleven doses with the top final concentration at 30 μM in 0.3% DMSO. Liquid handling is performed with ECHO 550 Acoustic Liquid Handler (Labcyte). After addition of compound treatment, cells are incubated for 24 hours at 37° C. (5% CO2, humidified). After the 24-hour treatment, plates are allowed to equilibrate to room temperature for 10 minutes. Using Dragonfly Automated Liquid Handler (TTP LabTech), 20 μl of HiBit lytic assay reagent (Promega, product #N3040), which is prepared according to manufacturer's instructions, is added to each well. The plates are rotated at room temperature for 2 minutes and incubated for 1 hour at 25° C. before luminescent signal is acquired using an EnVision Multimode Plate Reader (PerkinElmer).

[2] = target: T2, ABCB4 WT (Homo sapiens, UniProt P21439); experiment: ABCB4 WT assay: HiBit protein expression; settings: HEK-293 cells stably expressing HiBit-tagged ABCB4 WT; 24 h treatment; top concentration 30 μM; read-out: ABCB4 WT EC50, Emax
T2 construct: expressed in transfected cells
T2 sequence (P21439 whole entry): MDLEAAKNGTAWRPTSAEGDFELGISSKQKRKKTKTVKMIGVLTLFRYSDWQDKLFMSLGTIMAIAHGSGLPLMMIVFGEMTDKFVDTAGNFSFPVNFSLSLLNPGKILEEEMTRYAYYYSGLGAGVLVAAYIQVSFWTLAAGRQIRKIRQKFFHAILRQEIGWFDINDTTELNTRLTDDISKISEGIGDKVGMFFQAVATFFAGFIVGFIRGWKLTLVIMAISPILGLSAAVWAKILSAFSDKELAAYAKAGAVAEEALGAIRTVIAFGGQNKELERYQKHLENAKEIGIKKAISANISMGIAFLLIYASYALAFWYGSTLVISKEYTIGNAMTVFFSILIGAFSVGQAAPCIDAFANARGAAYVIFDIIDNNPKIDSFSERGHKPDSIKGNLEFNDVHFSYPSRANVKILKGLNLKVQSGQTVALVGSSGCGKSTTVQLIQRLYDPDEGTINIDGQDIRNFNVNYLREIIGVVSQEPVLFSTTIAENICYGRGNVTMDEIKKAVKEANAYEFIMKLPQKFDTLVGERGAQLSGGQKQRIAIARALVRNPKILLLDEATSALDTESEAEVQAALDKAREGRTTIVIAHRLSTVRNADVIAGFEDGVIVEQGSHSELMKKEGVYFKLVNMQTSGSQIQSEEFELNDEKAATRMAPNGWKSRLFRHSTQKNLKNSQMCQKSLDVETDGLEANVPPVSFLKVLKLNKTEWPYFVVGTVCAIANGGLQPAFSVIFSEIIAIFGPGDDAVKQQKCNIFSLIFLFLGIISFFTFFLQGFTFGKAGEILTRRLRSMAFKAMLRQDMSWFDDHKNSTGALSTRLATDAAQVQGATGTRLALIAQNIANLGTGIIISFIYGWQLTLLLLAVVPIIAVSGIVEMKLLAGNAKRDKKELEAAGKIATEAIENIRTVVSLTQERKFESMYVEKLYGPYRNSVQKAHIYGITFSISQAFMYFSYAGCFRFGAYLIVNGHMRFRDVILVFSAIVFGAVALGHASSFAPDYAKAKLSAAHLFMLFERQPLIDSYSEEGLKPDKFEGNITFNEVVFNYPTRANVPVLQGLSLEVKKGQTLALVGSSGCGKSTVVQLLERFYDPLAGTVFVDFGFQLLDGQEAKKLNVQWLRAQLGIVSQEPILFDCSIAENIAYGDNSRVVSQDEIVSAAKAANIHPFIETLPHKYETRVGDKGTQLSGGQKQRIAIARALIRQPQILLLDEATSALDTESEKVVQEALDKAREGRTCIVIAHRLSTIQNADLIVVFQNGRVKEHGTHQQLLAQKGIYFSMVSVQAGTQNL
Excerpt: To assess activity against ABCB4, compounds were screened in an assay measuring protein expression, using cells transfected with cDNA encoding HiBit-tagged ABCB4 wild-type.
Described here is an assay for measuring the expression of the wild type of human ABCB4 (henceforth referred to as ABCB4 WT) and the use of this assay to measure the efficacy of compounds to increase the expression of ABCB4 WT. The assay was designed to characterize the efficacy and potency of compounds to increase the expression of ABCB4 WT by calculating an Emax and EC50 value. HEK-293 cells stably expressing ABCB4 WT (HEK-293/ABCB4 WT) were used for this assay and were maintained at 37° C. (5% CO2, humidified) in Dulbecco's Modified Eagle Medium (DMEM, Gibco product #12100) supplemented with 10% fetal bovine serum (Biosera product #FB-1058/500), 1% PenStrep (HDB product #15140-122), and 0.5 mg/mL puromycin (Gibco product #A11138-03). For the assay, the HEK-293/ABCB4 WT cells were seeded in white/opaque 384-well plates (Corning product #3570) at 10,000 cells/well in 20 μl growth medium and allowed to settle for 4 hours at 37° C. (5% CO2, humidified). Compound serial dilutions are prepared in DMSO as three hundred times (333×) the final concentration and using a dilution factor of 3 using Bravo (Agilent). After the four-hour incubation period, 60 nL of DMSO solutions are transferred to the assay plate.
as §1
Results are presented below in Table 5 for ABCB4 WT.

[3] = target: T3, ABCC6 WT (Homo sapiens, UniProt O95255); experiment: ABCC6 WT assay: HiBit protein expression; settings: HEK-293 cells transiently expressing HiBit-tagged ABCC6 WT; 24 h treatment; top concentration 20 μM; read-out: ABCC6 WT EC50, Emax
T3 construct: expressed in transfected cells; host or cells: HEK-293 (transient, Lipofectamine 2000)
T3 sequence (O95255 whole entry): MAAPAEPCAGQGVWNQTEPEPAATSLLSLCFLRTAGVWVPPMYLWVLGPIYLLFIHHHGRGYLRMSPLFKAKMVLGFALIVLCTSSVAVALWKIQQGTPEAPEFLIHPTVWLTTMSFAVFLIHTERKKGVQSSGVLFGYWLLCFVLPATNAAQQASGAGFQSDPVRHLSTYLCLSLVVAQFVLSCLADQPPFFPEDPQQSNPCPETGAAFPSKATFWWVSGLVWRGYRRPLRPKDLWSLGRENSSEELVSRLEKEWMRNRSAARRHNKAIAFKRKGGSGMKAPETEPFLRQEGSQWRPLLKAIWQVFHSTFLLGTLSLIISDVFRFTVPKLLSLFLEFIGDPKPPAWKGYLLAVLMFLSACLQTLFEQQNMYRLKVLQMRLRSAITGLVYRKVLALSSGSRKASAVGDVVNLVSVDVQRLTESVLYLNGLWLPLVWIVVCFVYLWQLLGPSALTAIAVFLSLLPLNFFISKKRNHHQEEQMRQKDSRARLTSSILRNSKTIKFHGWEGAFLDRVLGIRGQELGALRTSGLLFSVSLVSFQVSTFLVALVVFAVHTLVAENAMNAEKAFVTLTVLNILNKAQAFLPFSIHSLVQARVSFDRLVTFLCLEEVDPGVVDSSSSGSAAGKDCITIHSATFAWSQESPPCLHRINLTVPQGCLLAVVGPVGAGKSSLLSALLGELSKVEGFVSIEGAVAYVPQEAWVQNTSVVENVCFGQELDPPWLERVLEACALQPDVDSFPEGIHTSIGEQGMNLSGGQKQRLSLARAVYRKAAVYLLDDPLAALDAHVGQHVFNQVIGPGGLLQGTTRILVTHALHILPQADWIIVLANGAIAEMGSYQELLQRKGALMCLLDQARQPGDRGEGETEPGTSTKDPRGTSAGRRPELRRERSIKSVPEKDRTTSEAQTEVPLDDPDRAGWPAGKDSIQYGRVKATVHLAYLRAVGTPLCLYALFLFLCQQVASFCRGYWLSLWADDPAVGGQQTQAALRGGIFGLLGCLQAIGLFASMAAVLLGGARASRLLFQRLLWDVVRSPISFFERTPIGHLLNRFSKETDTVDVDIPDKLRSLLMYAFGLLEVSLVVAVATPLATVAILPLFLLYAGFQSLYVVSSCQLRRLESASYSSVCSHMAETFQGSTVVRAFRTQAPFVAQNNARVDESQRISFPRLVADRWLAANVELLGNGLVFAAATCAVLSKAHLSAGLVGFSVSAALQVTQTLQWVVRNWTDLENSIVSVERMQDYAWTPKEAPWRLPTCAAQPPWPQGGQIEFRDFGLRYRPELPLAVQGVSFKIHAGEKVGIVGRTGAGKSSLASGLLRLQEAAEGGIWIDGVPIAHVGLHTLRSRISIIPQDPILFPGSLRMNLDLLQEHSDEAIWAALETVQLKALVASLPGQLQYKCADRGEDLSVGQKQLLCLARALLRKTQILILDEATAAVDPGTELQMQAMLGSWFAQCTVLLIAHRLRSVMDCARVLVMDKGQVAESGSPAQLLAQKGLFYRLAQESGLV
Excerpt: To assess activity against ABCC6, compounds were screened in an assay measuring protein expression, using cells transfected with cDNA encoding HiBit-tagged ABCC6 wild-type.
Described here is an assay for measuring the expression of the wild type of human ABCC6 (henceforth referred to as ABCC6 WT) and the use of this assay to measure the efficacy of compounds to increase the expression of ABCC6 WT. The assay was designed to characterize the efficacy and potency of compounds to increase the expression of ABCC6 WT by calculating an Emax and EC50 value. HEK-293 cells transiently expressing ABCC6 WT (HEK-293/ACC6 WT) were used for this assay and were cultured at 37° C. (5% CO2, humidified) in Dulbecco's Modified Eagle Medium (DMEM, Gibco product #11965-092) supplemented with 10% fetal bovine serum. For the assay, HEK-293 cells were transfected with […]/10 cm plate of cDNA encoding HiBit-tagged ABCC6 wild-type using Lipofectamine 2000 (Thermo Fisher, product #11668019). Twenty-four hours after transfection, the HEK-293/ACC6 WT cells were seeded in white/opaque 384-well plates (PerkinElmer, cat. No. 6007688) at 10,000 cells/well in 20 μl growth medium and allowed to settle for 4 hours at 37° C. (5% CO2, humidified). Compound serial dilutions are prepared in growth medium as ten times (10×) the final concentration and using a dilution factor of 2. After the four-hour incubation period, 2.2 μL of the 10× dilutions are transferred to the assay plate.
Dose response curves include ten doses with the top final concentration at 20 μM in 0.15% DMSO. Liquid handling is performed with an Integra mini96-tip head (INTEGRA). After addition of compound treatment, cells are incubated for 24 hours at 37° C. (5% CO2, humidified). After the 24-hour treatment, plates are allowed to equilibrate for 15 minutes at room temperature. Using Integra mini-96, 20 μl of HiBit lytic assay reagent (Promega, product #N3040), which is prepared according to manufacturer's instructions, is added to each well. The plates are rotated at room temperature for 10 minutes and luminescent signal is acquired using an EnVision Multimode Plate Reader (PerkinElmer).
Results are presented below in Table 4 for ABCC6 WT.

Row | Compound | EC50 [1] [µM] | EC50 [2] [µM] | EC50 [3] [µM]
1 | Cc1cc(C2CC2)nc(C)c1Oc1nc(-c2cncc(C#N)c2)ccc1NS(C)(=O)=O [Compound I-4] | < 1 | < 1 | < 1
2 | Cc1cc(C)c(Oc2nc(-c3cncc(C#N)c3)ccc2NS(C)(=O)=O)c(C)n1 [Compound I-5] | < 1 | < 1 | < 1
3 | Cc1cc(C)c(Oc2nc(-c3ccc(C#N)nc3C)ccc2NS(C)(=O)=O)c(C)c1 [Compound I-6] | 10 to 25 | ≥ 25 | < 1
4 | Cc1cc(C)c(Oc2nc(-c3ccc(C#N)nc3)ccc2NS(C)(=O)=O)c(C)n1 [Compound I-7] | < 1 | < 1 | < 1
5 | Cc1cc(C)c(Oc2nc(-c3cnc(C#N)c(Cl)c3)ccc2NS(C)(=O)=O)c(C)n1 [Compound I-8] | < 1 | < 1 | < 1
6 | Cc1cc(C)c(Oc2nc(-c3cncc(Cl)c3)ncc2NS(C)(=O)=O)c(C)c1 [Compound I-9] | > 25 | ≥ 25 | < 1
7 | Cc1cc(C)c(Oc2nc(-c3cncc(C#N)c3)ncc2NS(C)(=O)=O)c(C)c1 [Compound I-10] | < 1 | ≥ 25 | < 1
8 | CNS(=O)(=O)c1ccc(-c2cncc(Cl)c2)nc1Oc1c(C)cc(C)cc1C [Compound I-95] | < 1 | < 1 | < 1
9 | Cc1cc(C)c(Oc2nc(-c3cncc(Cl)c3)ccc2S(=O)(=O)N2CCCC2)c(C)c1 [Compound I-96] | > 25 | 1 to 10 | 1 to 10
10 | Cc1cc(C)c(Oc2nc(-c3cncc(Cl)c3)ccc2S(=O)(=O)N(C)C)c(C)c1 [Compound I-97] | > 25 | 1 to 10 | < 1
11 | Cc1cc(C)c(Oc2nc(-c3cncc(Cl)c3)ccc2S(=O)(=O)NC2CC2)c(C)c1 [Compound I-98] | > 25 | < 25 | < 1
12 | Cc1cc(C)c(Oc2nc(-c3cncc(Cl)c3)ccc2S(=O)(=O)NC(C)(C)C)c(C)c1 [Compound I-99] | > 25 | ≥ 25 | 1 to 10
13 | Cc1cc(C)c(Oc2nc(-c3cncc(Cl)c3)ccc2S(N)(=O)=O)c(C)c1 [Compound I-100] | 10 to 25 | ≥ 25 | < 1
14 | Cc1cc(C)c(Oc2nc(-c3cccc(Cl)c3)ccc2S(=O)(=O)NC2CCOC2)c(C)c1 (stereo not drawn) [Compound I-101] | 1 to 10 | ≥ 25 | 1 to 10
15 | Cc1cc(C)c(Oc2nc(-c3cccc(Cl)c3)ccc2S(N)(=O)=O)c(C)c1 [Compound I-102] | < 1 | ≥ 25 | 1 to 10
16 | Cc1cc(C)c(Oc2nc(-c3cncc(Cl)c3)ccc2S(C)(=N)=O)c(C)c1 (stereo not drawn) [Compound I-103] | 1 to 10 | < 1 | < 1

Row | Compound | EC50 [1] [µM] | EC50 [2] [µM] | EC50 [3] [µM]
17 | Cc1cc(C)c(Oc2nc(-c3cncc(Cl)c3)ccc2S(C)(=O)=O)c(C)c1 [Compound I-104] | 1 to 10 | 1 to 10 | 1 to 10
18 | Cc1cc(C(F)(F)F)nc(C2CC2)c1Oc1nc(-c2cncc(C#N)c2)ccc1S(=O)(=O)NC1CC1 [Compound I-133] | < 1 | 1 to 10 | < 1
19 | Cc1cc(C(F)F)nc(C2CC2)c1Oc1nc(-c2cncc(C#N)c2)ccc1N(C)S(=O)(=O)C1CC1 [Compound I-134] | > 25 | < 1 | 1 to 10
20 | Cc1cc(C(F)F)nc(C2CC2)c1Oc1nc(-c2cncc(C#N)c2)ccc1N(C)S(C)(=O)=O [Compound I-135] | > 25 | < 1 | 1 to 10
21 | Cc1cc(C)c(Oc2nc(-c3cncc(C#N)c3)ccc2N(C)S(=O)(=O)c2cccnc2)c(C2CC2)n1 [Compound I-136] | 1 to 10 | < 1 | 1 to 10
22 | Cc1cc(C(F)F)nc(C2CC2)c1Oc1nc(-c2cncc(C#N)c2)ccc1NS(C)(=O)=O [Compound I-137] | < 1 | < 1 | < 1
23 | CS(=O)(=O)Nc1ccc(-c2cncc(C#N)c2)nc1Oc1c(C2CC2)nc(C(F)(F)F)nc1C1CC1 [Compound I-138] | < 1 | < 1 | < 1
24 | Cc1cc(C(F)(F)F)nc(C2CC2)c1Oc1nc(-c2cncc(C#N)c2)ccc1N(C)S(=O)(=O)C1CC1 [Compound I-139] | > 25 | < 1 | < 1
25 | Cc1cc(C(F)(F)F)nc(C2CC2)c1Oc1nc(-c2cncc(C#N)c2)ccc1NS(=O)(=O)C1CC1 [Compound I-140] | < 1 | < 1 | < 1
26 | Cc1cc(C(F)(F)F)nc(C2CC2)c1Oc1nc(-c2cncc(C#N)c2)ccc1NS(=O)(=O)C(C)C [Compound I-141] | < 1 | < 1 | < 1
27 | Cc1nc(C(F)(F)F)nc(C2CC2)c1Oc1nc(-c2cncc(C#N)c2)ccc1N(C)S(C)(=O)=O [Compound I-142] | > 25 | ≥ 25 | ≥ 25
28 | Cc1nc(C2COC2)nc(C2CC2)c1Oc1nc(-c2cncc(C#N)c2)ccc1NS(C)(=O)=O [Compound I-143] | < 1 | < 1 | < 1
29 | Cc1nc(C(F)F)nc(C2CC2)c1Oc1nc(-c2cncc(C#N)c2)ccc1NS(C)(=O)=O [Compound I-144] | < 1 | < 1 | < 1
30 | Cc1nc(C(F)(F)F)nc(C2CC2)c1Oc1nc(-c2cncc(C#N)c2)ccc1NS(C)(=O)=O [Compound I-145] | < 1 | < 1 | < 1
31 | Cc1cc(C2CC2)nc(C2CC2)c1Oc1nc(-c2cncc(C#N)c2)ccc1N(C)S(C)(=O)=O [Compound I-146] | 1 to 10 | ≥ 25 | ≥ 25
32 | Cc1cc(C)c(Oc2nc(-c3cncc(C#N)c3)ccc2NS(=O)(=O)c2cccnc2)c(C2CC2)n1 [Compound I-147] | < 1 | < 25 | < 1
